Source: PubChem BioAssay (NCI)
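In this assay, cells in 96-well plates receive the compound at five concentrations for 48 hours. Endpoints are linearly interpolated between the surrounding concentrations. TGI is the concentration that stops growth completely.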

Columns and labels:
Assay in all cases: NCI-60 cell line screen, 48 h
786-0 renal = test system: 786-0 renal
A498 renal = test system: A498 renal
A549 NSCLC = test system: A549 NSCLC
ACHN renal = test system: ACHN renal
BT-549 breast = test system: BT-549 breast
CAKI-1 renal = test system: CAKI-1 renal
CCRF-CEM leukemia = test system: CCRF-CEM leukemia
DU-145 prostate = test system: DU-145 prostate
EKVX NSCLC = test system: EKVX NSCLC
HCT-116 colon = test system: HCT-116 colon
HCT-15 colon = test system: HCT-15 colon
HL-60(TB) leukemia = test system: HL-60(TB) leukemia
HOP-62 NSCLC = test system: HOP-62 NSCLC
HOP-92 NSCLC = test system: HOP-92 NSCLC
HS 578T breast = test system: HS 578T breast
HT29 colon = test system: HT29 colon
IGROV1 ovarian = test system: IGROV1 ovarian
K-562 leukemia = test system: K-562 leukemia
KM12 colon = test system: KM12 colon
LOX IMVI melanoma = test system: LOX IMVI melanoma
M14 melanoma = test system: M14 melanoma
MALME-3M melanoma = test system: MALME-3M melanoma
MDA-MB-231 breast = test system: MDA-MB-231 breast
MDA-N = test system: MDA-N
MOLT-4 leukemia = test system: MOLT-4 leukemia
NCI-H226 lung = test system: NCI-H226 lung
NCI-H23 lung = test system: NCI-H23 lung
NCI-H460 lung = test system: NCI-H460 lung
NCI-H522 lung = test system: NCI-H522 lung
NCI/ADR-RES ovarian = test system: NCI/ADR-RES ovarian
OVCAR-3 ovarian = test system: OVCAR-3 ovarian
OVCAR-4 ovarian = test system: OVCAR-4 ovarian
OVCAR-5 ovarian = test system: OVCAR-5 ovarian
OVCAR-8 ovarian = test system: OVCAR-8 ovarian
PC-3 prostate = test system: PC-3 prostate
RPMI-8226 leukemia = test system: RPMI-8226 leukemia
RXF 393 renal = test system: RXF 393 renal
SF-268 CNS = test system: SF-268 CNS
SF-295 CNS = test system: SF-295 CNS
SK-MEL-2 melanoma = test system: SK-MEL-2 melanoma
SK-MEL-28 melanoma = test system: SK-MEL-28 melanoma
SK-MEL-5 melanoma = test system: SK-MEL-5 melanoma
SN12C renal = test system: SN12C renal
SNB-19 CNS = test system: SNB-19 CNS
SR leukemia = test system: SR leukemia
SW-620 colon = test system: SW-620 colon
T-47D breast = test system: T-47D breast
TK-10 renal = test system: TK-10 renal
U251 CNS = test system: U251 CNS
UACC-257 melanoma = test system: UACC-257 melanoma
UACC-62 melanoma = test system: UACC-62 melanoma
UO-31 renal = test system: UO-31 renal
COLO 205 colon = test system: COLO 205 colon
HCC-2998 colon = test system: HCC-2998 colon
MCF7 breast = test system: MCF7 breast
MDA-MB-435 = test system: MDA-MB-435
SF-539 CNS = test system: SF-539 CNS
SK-OV-3 ovarian = test system: SK-OV-3 ovarian
SNB-75 CNS = test system: SNB-75 CNS

Measured: TGI

O=C(O)c1oc(C(=O)O)c(C(=O)O)c1C(=O)O
not listed: COLO 205 colon | HCC-2998 colon | MCF7 breast | MDA-MB-435 | SF-539 CNS | SK-OV-3 ovarian | SNB-75 CNS
> 100 µM: all other assays above

Cn1c2c(c3ccccc31)CC(=S)N1CCCC(CC2O)C1 (stereo not given)
not listed: CCRF-CEM leukemia | EKVX NSCLC | HL-60(TB) leukemia | HOP-62 NSCLC | IGROV1 ovarian | M14 melanoma | MOLT-4 leukemia | OVCAR-3 ovarian | OVCAR-5 ovarian | RXF 393 renal | SR leukemia
> 100 µM: all other assays above
